From the NIST ThermoML archive (doi:10.1016/j.fluid.2012.01.014)

What was measured:
[1] = cn = amount concentration of the nth substance listed, in mol/dm3; settings: Ring tensiometer
[2] = Ring tensiometer

CCCCCCCCCCCCOS(=O)(=O)[O-].[Na+] [sodium dodecyl sulfate] + O
surface tension liquid-gas [mN/m], [1]
Settings | 293 K | 303 K | 313 K
c1 = 1e-08 | 72.8 | 71.2 | 69.6
c1 = 1e-07 | 72.9 | 71.19 | 69.6
c1 = 1e-06 | 72.79 | 71.17 | 69.58
c1 = 3.98e-06 | 72.78 | 71.15 | 69.56
c1 = 7.94e-06 | 72.76 | 71.14 | 69.53
c1 = 1e-05 | 72.75 | 71 | 69.51
c1 = 5.01e-05 | 72.69 | 70.81 | 69.48
c1 = 6.31e-05 | 72.46 | 70.59 | 69.27
c1 = 0.0001 | 72.24 | 70.01 | 69.05
c1 = 0.0002 | 71.62 | 69.29 | 67.85
c1 = 0.000631 | 68.1 | 66.62 | 65.14
c1 = 0.000794 | 66.25 | 65.21 | 64.01
c1 = 0.001 | 64.32 | 63.87 | 62.73
c1 = 0.002 | 57.43 | 57.02 | 55.94
c1 = 0.00398 | 49.72 | 49.52 | 48.45
c1 = 0.00631 | 43.37 | 42.98 | 41.7
c1 = 0.00794 | 38.88 | 38.34 | 36.91
c1 = 0.00832 | 38.4 | 38.21 | 36.42
c1 = 0.01 | 38.4 | 38.21 | 36.42

CCCCCCCCCCCCCCCCS(=O)(=O)[O-].[Na+] [sodium hexadecylsulfonate] + O
surface tension liquid-gas [mN/m], [1]
Settings | 293 K | 303 K | 313 K
c1 = 1e-08 | 72.8 | 71.2 | 69.6
c1 = 1e-07 | 72.8 | 71.19 | 69.6
c1 = 1e-06 | 72.7 | 71.15 | 69.55
c1 = 3.98e-06 | 72.6 | 70.99 | 69.42
c1 = 5.01e-06 | 72.5 | 70.89 | 69.31
c1 = 6.03e-06 | 72.4 | 70.77 | 69.21
c1 = 7.94e-06 | 72.3 | 70.69 | 69.09
c1 = 1e-05 | 72.2 | 70.54 | 68.99
c1 = 2e-05 | 71.6 | 69.98 | 68.41
c1 = 6.03e-05 | 69 | 68.49 | 67.04
c1 = 0.0001 | 66.2 | 65.54 | 64.15
c1 = 0.0002 | 59.15 | 58.94 | 58.84
c1 = 0.000603 | 43.23 | 43.17 | 43.12
c1 = 0.000741 | 40.28 | 40.07 | 39.97
c1 = 0.000891 | – | 38.59 | 38.55

CCCCCCCCCCCCN(C)CC(=O)[O-].[Na+] [sodium laurylsarcosinate] + O
surface tension liquid-gas [mN/m], [1]
Settings | 293 K | 303 K | 313 K
c1 = 1e-07 | 72.4 | 71.19 | 69.59
c1 = 5.01e-07 | 72.2 | 71.15 | 69.56
c1 = 1e-06 | 72 | 71.1 | 69.52
c1 = 5.01e-06 | 71.6 | 70.72 | 69.2
c1 = 1e-05 | 71.4 | 70.28 | 68.83
c1 = 5.01e-05 | 69 | 67.57 | 66.49
c1 = 0.0001 | 65.5 | 65.33 | 64.45
c1 = 0.000501 | 48.6 | 48.46 | 48.32
c1 = 0.000631 | 46.3 | 46.1 | 46
c1 = 0.000708 | 44.9 | 44.03 | 43.82
c1 = 0.000794 | 43.6 | 42.91 | 42.71
c1 = 0.000891 | 42.3 | 41.85 | 41.15
c1 = 0.001 | 41.1 | 40.33 | 39.51
c1 = 0.002 | 32.9 | 32.39 | 31.83
c1 = 0.00316 | 28.3 | 28 | 27.5
c1 = 0.00398 | 26.9 | 26.65 | 26.12
c1 = 0.00501 | 26.5 | 26.45 | 25.48
c1 = 0.01 | 26.5 | 26.45 | 25.42

CCCCCCCCCCCCCC[N+](C)(C)C.[Br-] [tetradecyltrimethylammonium bromide] + O
surface tension liquid-gas [mN/m], [1]
Settings | 293 K | 313 K
c1 = 1e-07 | 72.4 | 69.59
c1 = 5.01e-07 | 72.3 | 69.54
c1 = 1e-06 | 72.2 | 69.48
c1 = 5.01e-06 | 71.7 | 69.03
c1 = 1e-05 | 71.6 | 68.49
c1 = 5.01e-05 | 70.8 | 67.49
c1 = 0.0001 | 69.9 | 66.58
c1 = 0.0002 | 66.7 | 63.61
c1 = 0.000501 | 59.1 | 58.43
c1 = 0.000631 | 56.1 | 55.41
c1 = 0.000708 | 54.6 | 53.85
c1 = 0.000794 | 53.7 | 52.61
c1 = 0.000891 | 52.7 | 51.54
c1 = 0.001 | 51.9 | 50.21
c1 = 0.002 | 43.7 | 42.65
c1 = 0.00316 | 36.7 | 36.05
c1 = 0.00398 | 36.3 | 35.38
c1 = 0.00501 | 36.3 | 35.38
c1 = 0.00708 | 36.3 | 35.38
c1 = 0.01 | 36.3 | 35.38

O [water]
[2]
Settings | surface tension liquid-gas [mN/m]
293 K | 72.8
303 K | 71.2
313 K | 69.6

O [water] + CCCCCCCCCCCCCCCCS(=O)(=O)[O-].[Na+]
[1], c2 = 0
Settings | surface tension liquid-gas [mN/m]
293 K | 72.8
303 K | 71.2
313 K | 69.6

O [water] + CCCCCCCCCCCCCCCC[N+](C)(C)C.[Br-]
[1], c2 = 0
Settings | surface tension liquid-gas [mN/m]
293 K | 72.8
303 K | 71.2
313 K | 69.6

O [water] + CCCCCCCCCCCCCCCC[n+]1ccccc1.[Br-]
[1], c2 = 0
Settings | surface tension liquid-gas [mN/m]
293 K | 72.8
303 K | 71.2
313 K | 69.6

O [water] + CCCCCCCCCCCCCC[N+](C)(C)C.[Br-]
[1], c2 = 0
Settings | surface tension liquid-gas [mN/m]
293 K | 72.8
313 K | 69.6

O [water] + CCCCCCCCCCCCN(C)CC(=O)[O-].[Na+]
[1], c2 = 0
Settings | surface tension liquid-gas [mN/m]
293 K | 72.8
303 K | 71.2
313 K | 69.6

O [water] + CCCCCCCCCCCCOS(=O)(=O)[O-].[Na+]
[1], c2 = 0
Settings | surface tension liquid-gas [mN/m]
293 K | 72.8
303 K | 71.2
313 K | 69.6

O [water] + CCCCCCCCCCCC[N+](C)(C)CC.[Br-]
[1], c2 = 0
Settings | surface tension liquid-gas [mN/m]
293 K | 72.8
303 K | 71.2
313 K | 69.6

O [water] + CCCCCCCCCCCC[N+](C)(C)Cc1ccccc1.[Br-]
[1], c2 = 0
Settings | surface tension liquid-gas [mN/m]
293 K | 72.8
303 K | 71.2
313 K | 69.6
